Measurements published in patent US20090298708A1, “2'-DEOXY-2'-FLUORO-BETA-D-ARABINONUCLEOSIDE 5'-TRIPHOSPHATES AND THEIR USE IN ENZYMATIC NUCLEIC ACID SYNTHESIS” (priority 2006, published 2009).

Target: T1, MMLV-RT (Moloney murine leukemia virus, UniProt P03355)
T1 construct: Reverse transcriptases (RT): • MMLV-RT (MMLV or MM; source: Fermentas); purchased Fermentas
Assay: Primer extension assay with MMLV-RT
Assay type: biochemical
Design: key to Incorporation of three 2′F-araTTP / 2′F-araCTP (incorporation efficiency) / Enzymatic activity during primer extension reactions: ++++: excellent (no pausing observed); +++: very good (with slight pausing); ++: Good, full-length products with significant pausing; +: significant pausing, no full-length product but at least one 2′F-araN incorporation detected
Details: for Order of efficiency of incorporation: DNA template PF22 (T/U triphosphates) or PF24 (C triphosphates), three contiguous units; for Enzymatic activity during primer extension reactions: plus dATP, dGTP; for Incorporation of three 2′F-araTTP / 2′F-araCTP (incorporation efficiency): DNA template PF22 (2′F-araTTP) or PF24 (2′F-araCTP)
Text: Primer extension assays were used to assess the incorporation of 2′F-araNTP on the various DNA templates (Table 1). The DNA primer (PF20) was first radioactively labeled at the 5′-hydroxyl terminus with a radioactive phosphorus probe and the enzyme T4 polynucleotide kinase (T4 PNK) (see Example 1 for General Methods). To assess the incorporation of 2′F-araNTPs, the primer and template were annealed, and the nucleoside 5′-triphosphates added in the presence of enzyme under the conditions specified in Table 2. Time points were obtained by analyzing small aliquots from the reaction mixture through polyacryamide gel electrophoresis (PAGE) and autoradiography.
Primer extension assays were used to assess the incorporation efficiency of contiguous 2′F-ara(T/C)TPs compared to 2′F-r(U/C)TP on a DNA template (e.g. PF22 or PF24). To this end, a DNA template (e.g. PF22: FIGS. 15, 16, 17A, 18, 21A; PF24: FIGS. 17B, 19, 20, 21B), primer and the appropriate NTPs (e.g. combination of dATP/dCTP/dGTP/ and NTP, where N=dT, 2′F-araT, 2′F-rU, or rU (FIGS. 15, 16, 17A, 18, 21A); or combination of dATP/dGTP/dTTP/ and NTP, where N=dC, 2′F-araC, 2′F-rC, or rC (FIGS. 17B, 19, 20, 21B)), were incubated in the presence one of MMLV-RT, 9N, HIV or DV polymerase. The protocols and conditions are described in Example 2 and Table 2.
Unless otherwise noticed in the Examples described below, the conditions used in the primer extension assays, such as dNTP concentration, reaction temperatures, concentration of Mg^2+, and reaction buffers (provided by the manufacturers, except for the HIV buffer which was prepared in-house) are shown in Table 2.
Primer extension assays were used to assess the incorporation of 2′F-araTTP on the DNA template (PF22). The DNA primer (PF20) was first radioactively labeled at the 5′-hydroxyl terminus with a radioactive phosphorus probe and the enzyme T4 polynucleotide kinase (T4 PNK) according to the manufacturer's specifications (MBI Fermentas Life Sciences, Burlington, ON). Incorporation of the ^32P label was accomplished in reaction mixtures consisting of DNA substrate (200 pmol), 2 μl loxreaction buffer (Buffer A for forward reaction: 500 mM Tris-HCl, pH 7.6 at 25° C., 100 mM MgCl2, 50 mM DTT, 1 mM spermidine and 1 mM EDTA), 1 μl T4 PNK enzyme solution (10 U/1 μl in a solution of 20 mM Tris-HCl, pH 7.5, 25 mM KCl, 0.1 mM EDTA, 2 mM DTT and 50% glycerol), 6 μl [γ-^32P]-ATP solution (6000 Ci/mmol, 10 mCi/ml; Amersham Biosciences, Inc.) and autoclaved sterile water to a final volume of 20 μl. The reaction mixture was incubated for about 45-60 min at 37° C., followed by a second incubation for 10 min at 95° C. to heat denature and deactivate the kinase enzyme. The solution was purified according to a standard protocol and the isolated yield of 5′-^32P-DNA following gel extraction averages 50%. The pure labeled samples were kept at −20° C. for future use.
Usually 2 or 3 folds of cold (unlabeled) DNA primer were combined with the radioactive primer. Then primer to template was mixed together with the final concentration at 85 nM for the primer and 255 nM for the template (i.e. the primer:template=1:3 molar ratio). The primer and template were heated at 95° C. for 5 min and annealed at 4° C. for at least two hours before use. In an Eppendorf tube, the following reagents, 5× or 10× buffer, nucleoside 5′-triphosphates (DATP, dGTP, dCTP, 2′F-araTTP at the same concentrations; see legend of FIG. 2), water, the primer and template mixture, were added together according to pre-calculated reaction volume (20 μL) and concentrations (see reaction conditions in Table 2). Mineral oil (20 μL) was usually used to prevent evaporation. The reaction mixture was incubated at either 37° C. or 55° C. and one of the various enzymes tested was added to initiate the primer extension reactions. […]

| Structure (SMILES) | Order of efficiency of incorporation (MMLV-RT, 37° C.) | Incorporation of three 2′F-araTTP / 2′F-araCTP (incorporation efficiency) (MMLV, 37° C.) | other results |
| --- | --- | --- | --- |
| Cc1cn([C@H]2C[C@H](O)[C@@H](COP(=O)(O)OP(=O)(O)OP(=O)(O)O)O2)c(=O)[nH]c1=O [dTTP, reference compound] | dTTP > 2′F-araTTP > 2′F-rUTP > UTP |  |  |
| O=c1ccn([C@@H]2O[C@H](COP(=O)(O)OP(=O)(O)OP(=O)(O)O)[C@@H](O)[C@H]2F)c(=O)[nH]1 [2′F-rUTP, 1-(2-deoxy-2-fluoro-β-D-ribo-furanosyl)uracil 5′-triphosphate, reference compound] | dTTP > 2′F-araTTP > 2′F-rUTP > UTP |  |  |
| Nc1ccn([C@@H]2O[C@H](COP(=O)(O)OP(=O)(O)OP(=O)(O)O)[C@@H](O)[C@@H]2F)c(=O)n1 [2′F-araCTP, 1-(2-deoxy-2-fluoro-β-D-arabinofuranosyl)cytosine 5′-triphosphate] | dCTP~2′F-rCTP ≧ 2′F-araCTP > CTP | ++++ | Enzymatic activity during primer extension reactions (Example 3, DNA template PF24, 3x 2′F-araCTP, dTTP, MMLV, 37° C.): +++; premature products (MMLV-RT, DNA template PF24, after 60 mins, 37° C.): ca. 90% |
| Cc1cn([C@@H]2O[C@H](COP(=O)(O)OP(=O)(O)OP(=O)(O)O)[C@@H](O)[C@@H]2F)c(=O)[nH]c1=O [2′F-araTTP, 1-(2-deoxy-2-fluoro-β-D-arabino-furanosyl)thymine 5′-triphosphate] | dTTP > 2′F-araTTP > 2′F-rUTP > UTP | +++ | Enzymatic activity during primer extension reactions (Example 2, DNA template PF22, 3x 2′F-araTTP, dCTP, MMLV, 37° C.): +++; substrate property for MMLV (second incorporations of modified triphosphates) (MMLV, DNA template PF22, compared to 2′F-rUTP and rUTP): best substrate |
| Nc1ccn([C@H]2C[C@H](O)[C@@H](COP(=O)(O)OP(=O)(O)OP(=O)(O)O)O2)c(=O)n1 [dCTP] | dCTP~2′F-rCTP ≧ 2′F-araCTP > CTP |  |  |
| Nc1ccn([C@@H]2O[C@H](COP(=O)(O)OP(=O)(O)OP(=O)(O)O)[C@@H](O)[C@H]2F)c(=O)n1 [2′F-rCTP, 1-(2-deoxy-2-fluoro-β-D-ribofuranosyl) cytosine 5′-triphosphate, reference compound] | dCTP~2′F-rCTP ≧ 2′F-araCTP > CTP |  | full-length product (MMLV-RT, DNA template PF24, 37° C.): ~100% |
